# Laboratory results: ChEMBL document CHEMBL6182945, “MMAE-Based Peptide-Drug Conjugates Targeting GPC3 for Precision Chemoradiotherapy in Hepatocellular Carcinoma” (J Med Chem, 2025)
# Calls of active or inactive are those of the source. No cut-off for these calls is given here. Starred links: 1 amine or outer side, 2 acyl side, 3 side chain; linkers in the order of their positions; H or OH if unused. Positions of bridges follow the written chain, without caps; N, C: chain ends. Non-standard residues stand in square brackets, D forms with d. Residues, ends and D or L forms follow the SMILES beside them. Chains are numbered I, II in the order given. *: point of attachment. X2 = CC[C@H](C)[C@@H]([C@@H](CC(=O)N1CCC[C@H]1[C@H](OC)[C@@H](C)C(=O)N[C@H](C)[C@H](O)c1ccccc1)OC)N(C)[C@H](C(=O)NC(=O)[C@H](C(C)C)N(C)C(=O)OCc1ccc(NC(=O)[C@H](CCCNC(N)=O)NC(=O)[C@@H](NC(=O)CCCCCN2C(=O)CC(*)C2=O)C(C)C)cc1)C(C)C; Hexanoyl(6-succinimido-3yl) = O=C1CC([*:1])C(=O)N1CCCCCC(=O)[*:2]; Dolaproine = CO[C@@H]([C@@H]1CCCN1)[C@@H](C)C(=O)O; Dil = CC[C@H](C)[C@H](NC)[C@@H](CC(=O)O)OC; PABC = O=C(OCc1ccc(N[*:1])cc1)[*:2]; X1 = C[C@@H](N*)[C@@H](O)c1ccccc1; Cit = NC(=O)NCCC[C@H](N)C(=O)O; NMeV = CN[C@H](C(=O)O)C(C)C
# Legend:
# [1] = Drug uptake in human Huh-7 cells assessed as red fluorescence in inside the cells measured after 30 mins by live cell confocal imaging analysis; format: ADME, cell-based; conditions: huh-7, 0.5 h
# [2] = Drug uptake in human Huh-7 cells assessed as green fluorescence in lysosomes measured after 30 mins co-staining with lysotracker by live cell confocal imaging analysis; format: ADME, cell-based; conditions: huh-7, 0.5 h
# [3] = tested on: Hep 3B2; assay: Antiproliferative activity against GPC3-positive human Hep3B cells assessed as cytotoxicity measured after 72 hrs by MTT assay; format: functional, cell-based
# [4] = tested on: Huh-7; assay: Antiproliferative activity against GPC3-positive human Huh-7 cells assessed as cytotoxicity measured after 72 hrs by MTT assay; format: functional, cell-based; conditions: Huh-7, 72 h
# [5] = tested on: HeLa; assay: Antiproliferative activity against GPC3-negative human HeLa cells assessed as cytotoxicity measured after 72 hrs by MTT assay; format: functional, cell-based
# [6] = tested on: LX-2; assay: Antiproliferative activity against GPC3-negative human LX-2 cells assessed as cytotoxicity measured after 72 hrs by MTT assay; format: functional, cell-based; conditions: LX-2, 72 h
# [7] = target: Glypican-3 (Homo sapiens) (UniProt P51654); assay: Binding affinity to GPC3 in human Hep3B cells assessed as increase in fluorescence (red color) by immunofluorescence staining based assay; format: cell-based
# Chain of Glypican-3 (Homo sapiens) (P51654 25-358 limits assumed): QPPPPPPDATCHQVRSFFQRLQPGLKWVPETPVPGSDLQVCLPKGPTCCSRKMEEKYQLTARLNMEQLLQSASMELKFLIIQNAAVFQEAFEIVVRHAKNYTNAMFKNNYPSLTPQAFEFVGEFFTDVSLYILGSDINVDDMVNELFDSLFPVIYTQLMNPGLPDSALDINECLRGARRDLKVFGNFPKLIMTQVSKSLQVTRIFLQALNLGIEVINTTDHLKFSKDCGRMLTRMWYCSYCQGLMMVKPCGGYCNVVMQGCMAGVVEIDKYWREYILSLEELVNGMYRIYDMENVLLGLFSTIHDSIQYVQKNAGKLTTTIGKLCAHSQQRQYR
# Chain of Glypican-3 (Homo sapiens) (P51654 359-554 limits assumed): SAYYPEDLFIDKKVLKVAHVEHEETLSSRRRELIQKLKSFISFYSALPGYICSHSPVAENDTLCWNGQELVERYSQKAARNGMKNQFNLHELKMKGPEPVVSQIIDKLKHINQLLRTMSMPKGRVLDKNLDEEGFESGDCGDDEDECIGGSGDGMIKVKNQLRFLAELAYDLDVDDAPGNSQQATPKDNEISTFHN
# [8] = target: Glypican-3 (Homo sapiens) (UniProt P51654); assay: Binding affinity to GPC3 in human HeLa cells assessed as increase in fluorescence (red color) measured after 4 hrs incubation by immunofluorescence staining based assay; format: cell-based
# [9] = target: Glypican-3 (Homo sapiens) (UniProt P51654); assay: Binding affinity to GPC3 in human LX-2 cells assessed as increase in fluorescence (red color) measured after 4 hrs incubation by immunofluorescence staining based assay; format: cell-based
# [10] = target: Glypican-3 (Homo sapiens) (UniProt P51654); assay: Binding affinity to GPC3 in human Huh-7 cells assessed as increase in fluorescence (red color) by immunofluorescence staining based assay; format: cell-based
SMILES,Drug uptake [1],Drug uptake [2],IC50 [3],IC50 [4],IC50 [5],IC50 [6],Activity [7],Activity [8],Activity [9],Activity [10]
CC[C@H](C)[C@@H]([C@@H](CC(=O)N1CCC[C@H]1[C@H](OC)[C@@H](C)C(=O)N[C@H](C)[C@@H](O)c1ccccc1)OC)N(C)C(=O)[C@@H](NC(=O)[C@H](C(C)C)N(C)C(=O)OCc1ccc(NC(=O)[C@H](CCCNC(N)=O)NC(=O)[C@@H](NC(=O)CCCCCN2C(=O)CC(SC[C@H](NC(=O)CCCCC[N+]3=C(/C=C/C=C/C=C4\N(C)c5ccc6ccccc6c5C4(C)C)C(C)(C)c4c3ccc3ccccc43)C(=O)N[C@@H](CO)C(=O)N[C@@H](CC(N)=O)C(=O)N[C@@H](CC(=O)O)C(=O)N[C@@H](CCCNC(=N)N)C(=O)N3CCC[C@H]3C(=O)N3CCC[C@H]3C(=O)N[C@@H](CC(N)=O)C(=O)N[C@H](C(=O)N[C@@H](CC(C)C)C(=O)N[C@@H](CCC(N)=O)C(=O)N[C@@H](CCCCN)C(=O)N[C@@H](CCCNC(=N)N)C(N)=O)[C@@H](C)CC)C2=O)C(C)C)cc1)C(C)C (some centres not stated),Active,Active,–,–,–,–,–,–,–,–
CC[C@H](C)[C@@H]([C@@H](CC(=O)N1CCC[C@H]1[C@H](OC)[C@@H](C)C(=O)N[C@H](C)[C@H](O)c1ccccc1)OC)N(C)[C@H](C(=O)NC(=O)[C@H](C(C)C)N(C)C(=O)OCc1ccc(NC(=O)[C@H](CCCNC(N)=O)NC(=O)[C@@H](NC(=O)CCCCCN2C(=O)CC(SC[C@H](N)C(=O)N[C@H](C(=O)N[C@@H](Cc3cnc[nH]3)C(=O)N[C@H](C(=O)N[C@@H](CO)C(=O)N3CCC[C@H]3C(=O)N[C@@H](CC(N)=O)C(=O)N[C@@H](CCC(N)=O)C(=O)NCC(=O)NCC(=O)N[C@@H](CC(C)C)C(=O)N3CCC[C@H]3C(=O)N[C@@H](CO)C(=O)O)C(C)C)[C@@H](C)O)C2=O)C(C)C)cc1)C(C)C (some centres not stated) (H-C(X2)THVSPNQGGLPS-OH),–,–,> 100 nM,40 nM,> 100 nM,48.9 nM,–,–,–,–
CC[C@H](C)[C@@H]([C@@H](CC(=O)N1CCC[C@H]1[C@H](OC)[C@@H](C)C(=O)N[C@H](C)[C@@H](O)c1ccccc1)OC)N(C)C(=O)[C@@H](NC(=O)[C@H](C(C)C)N(C)C(=O)OCc1ccc(NC(=O)[C@H](CCCNC(N)=O)NC(=O)[C@@H](NC(=O)CCCCCN2C(=O)CC(SC[C@H](N)C(=O)N[C@@H](CCCNC(=N)N)C(=O)N[C@@H](CC(C)C)C(=O)N[C@@H](CC(N)=O)C(=O)N[C@H](C(=O)NCC(=O)NCC(=O)N[C@H](C(=O)N[C@@H](Cc3ccc(O)cc3)C(=O)N[C@@H](Cc3ccccc3)C(=O)N[C@@H](CC(C)C)C(=O)N[C@H](C(=O)N[C@H](C(=O)N[C@@H](CCCNC(=N)N)C(=O)N[C@@H](CCC(N)=O)C(N)=O)[C@@H](C)O)[C@@H](C)O)[C@@H](C)O)C(C)C)C2=O)C(C)C)cc1)C(C)C (some centres not stated) (I: H-CRLNVGGTYFLTTRQ-NH2 / II: V[Cit][PABC][NMeV]V[Dil][Dolaproine]-X1; linker I:1-II:N via Hexanoyl(6-succinimido-3yl)),–,–,81.2 nM,67.9 nM,70.4 nM,30.8 nM,–,–,–,–
CC[C@H](C)[C@@H]([C@@H](CC(=O)N1CCC[C@H]1[C@H](OC)[C@@H](C)C(=O)N[C@H](C)[C@@H](O)c1ccccc1)OC)N(C)C(=O)[C@@H](NC(=O)[C@H](C(C)C)N(C)C(=O)OCc1ccc(NC(=O)[C@H](CCCNC(N)=O)NC(=O)[C@@H](NC(=O)CCCCCN2C(=O)CC(SC[C@H](N)C(=O)N[C@@H](Cc3ccc(O)cc3)C(=O)N[C@@H](Cc3ccccc3)C(=O)N[C@@H](CC(C)C)C(=O)N[C@H](C(=O)N[C@H](C(=O)N[C@@H](CCCNC(=N)N)C(=O)N[C@@H](CCC(N)=O)C(N)=O)[C@@H](C)O)[C@@H](C)O)C2=O)C(C)C)cc1)C(C)C (some centres not stated) (I: H-CYFLTTRQ-NH2 / II: V[Cit][PABC][NMeV]V[Dil][Dolaproine]-X1; linker I:1-II:N via Hexanoyl(6-succinimido-3yl)),–,–,> 100 nM,30.9 nM,> 100 nM,> 100 nM,–,–,–,–
CC[C@H](C)[C@@H]([C@@H](CC(=O)N1CCC[C@H]1[C@H](OC)[C@@H](C)C(=O)N[C@H](C)[C@@H](O)c1ccccc1)OC)N(C)C(=O)[C@@H](NC(=O)[C@H](C(C)C)N(C)C(=O)OCc1ccc(NC(=O)[C@H](CCCNC(N)=O)NC(=O)[C@@H](NC(=O)CCCCCN2C(=O)CC(SC[C@H](N)C(=O)N[C@@H](C)C(=O)N[C@@H](CC(C)C)C(=O)N[C@@H](CC(C)C)C(=O)N[C@@H](C)C(=O)N[C@@H](CC(N)=O)C(=O)N[C@@H](Cc3cnc[nH]3)C(=O)N[C@@H](CCC(=O)O)C(=O)N[C@@H](CCC(=O)O)C(=O)N[C@@H](CC(C)C)C(=O)N[C@@H](Cc3ccccc3)C(=O)N[C@@H](CCC(N)=O)C(=O)N[C@H](C(N)=O)[C@@H](C)O)C2=O)C(C)C)cc1)C(C)C (some centres not stated) (I: H-CALLANHEELFQT-NH2 / II: V[Cit][PABC][NMeV]V[Dil][Dolaproine]-X1; linker I:1-II:N via Hexanoyl(6-succinimido-3yl)),–,–,> 100 nM,81.4 nM,> 100 nM,> 100 nM,–,–,–,–
CC[C@H](C)[C@@H]([C@@H](CC(=O)N1CCC[C@H]1[C@H](OC)[C@@H](C)C(=O)N[C@H](C)[C@@H](O)c1ccccc1)OC)N(C)C(=O)[C@@H](NC(=O)[C@H](C(C)C)N(C)C(=O)OCc1ccc(NC(=O)[C@H](CCCNC(N)=O)NC(=O)[C@H](NC(=O)CCCCCN2C(=O)CC(SC[C@H](NC(=O)CCCCC[N+]3=C(/C=C/C=C/C=C4\N(C)c5ccc6ccccc6c5C4(C)C)C(C)(C)c4c3ccc3ccccc43)C(=O)N[C@@H](CC(=O)O)C(=O)N[C@@H](Cc3ccc(O)cc3)C(=O)N[C@@H](CCC(=O)O)C(=O)N[C@@H](CCSC)C(=O)N[C@@H](Cc3cnc[nH]3)C(=O)N[C@@H](CC(C)C)C(=O)N[C@@H](Cc3c[nH]c4ccccc34)C(=O)N[C@@H](Cc3c[nH]c4ccccc34)C(=O)NCC(=O)N[C@H](C(=O)N[C@@H](CCC(=O)O)C(=O)N[C@@H](CC(C)C)C(N)=O)[C@H](C)O)C2=O)C(C)C)cc1)C(C)C (some centres not stated),–,–,–,–,–,–,Active; Compound Showed Minimal Binding,Active; Compound Showed Minimal Binding,Active,–
CC[C@H](C)[C@@H]([C@@H](CC(=O)N1CCC[C@H]1[C@H](OC)[C@@H](C)C(=O)N[C@H](C)[C@@H](O)c1ccccc1)OC)N(C)C(=O)[C@@H](NC(=O)[C@H](C(C)C)N(C)C(=O)OCc1ccc(NC(=O)[C@H](CCCNC(N)=O)NC(=O)[C@@H](NC(=O)CCCCCN2C(=O)CC(SC[C@H](N)C(=O)N[C@@H](CC(=O)O)C(=O)N[C@@H](Cc3ccc(O)cc3)C(=O)N[C@@H](CCC(=O)O)C(=O)N[C@@H](CCSC)C(=O)N[C@@H](Cc3cnc[nH]3)C(=O)N[C@@H](CC(C)C)C(=O)N[C@@H](Cc3c[nH]c4ccccc34)C(=O)N[C@@H](Cc3c[nH]c4ccccc34)C(=O)NCC(=O)N[C@H](C(=O)N[C@@H](CCC(=O)O)C(=O)N[C@@H](CC(C)C)C(N)=O)[C@@H](C)O)C2=O)C(C)C)cc1)C(C)C (some centres not stated) (I: H-CDYEMHLWWGTEL-NH2 / II: V[Cit][PABC][NMeV]V[Dil][Dolaproine]-X1; linker I:1-II:N via Hexanoyl(6-succinimido-3yl)),–,–,> 100 nM,41.5 nM,> 100 nM,58.1 nM,–,–,–,–
CC[C@H](C)[C@@H]([C@@H](CC(=O)N1CCC[C@H]1[C@H](OC)[C@@H](C)C(=O)N[C@H](C)[C@@H](O)c1ccccc1)OC)N(C)C(=O)[C@@H](NC(=O)[C@H](C(C)C)N(C)C(=O)OCc1ccc(NC(=O)[C@H](CCCNC(N)=O)NC(=O)[C@@H](NC(=O)CCCCCN2C(=O)CC(SC[C@H](NC(=O)CCCCC[N+]3=C(/C=C/C=C/C=C4\N(C)c5ccc6ccccc6c5C4(C)C)C(C)(C)c4c3ccc3ccccc43)C(=O)N[C@@H](CO)C(=O)N[C@@H](CC(N)=O)C(=O)N[C@@H](CC(=O)O)C(=O)N[C@@H](CCCNC(=N)N)C(=O)N3CCC[C@@H]3C(=O)N3CCC[C@@H]3C(=O)N[C@@H](CC(N)=O)C(=O)N[C@H](C(=O)N[C@@H](CC(C)C)C(=O)N[C@@H](CCC(N)=O)C(=O)N[C@@H](CCCCN)C(=O)N[C@@H](CCCNC(=N)N)C(N)=O)[C@@H](C)CC)C2=O)C(C)C)cc1)C(C)C (some centres not stated),–,–,–,–,–,–,Active,Active,Active,Active
CC[C@H](C)[C@@H]([C@@H](CC(=O)N1CCC[C@H]1[C@H](OC)[C@@H](C)C(=O)N[C@H](C)[C@@H](O)c1ccccc1)OC)N(C)C(=O)[C@@H](NC(=O)[C@@H](NC)C(C)C)C(C)C (H-[NMeV]V[Dil][Dolaproine]-X1),–,–,8.63 nM,1.05 nM,1.47 nM,0.46 nM,–,–,–,–
CC[C@H](C)[C@@H]([C@@H](CC(=O)N1CCC[C@H]1[C@H](OC)[C@@H](C)C(=O)N[C@H](C)[C@@H](O)c1ccccc1)OC)N(C)C(=O)[C@@H](NC(=O)[C@H](C(C)C)N(C)C(=O)OCc1ccc(NC(=O)[C@H](CCCNC(N)=O)NC(=O)[C@@H](NC(=O)CCCCCN2C(=O)CC(SC[C@H](N)C(=O)N[C@@H](CC(=O)O)C(=O)N[C@@H](Cc3cnc[nH]3)C(=O)N[C@@H](CC(C)C)C(=O)N[C@@H](C)C(=O)N[C@@H](CO)C(=O)N[C@@H](CC(C)C)C(=O)N[C@@H](Cc3c[nH]c4ccccc34)C(=O)N[C@@H](Cc3c[nH]c4ccccc34)C(=O)NCC(=O)N[C@H](C(=O)N[C@@H](CCC(=O)O)C(=O)N[C@@H](CC(C)C)C(N)=O)[C@@H](C)O)C2=O)C(C)C)cc1)C(C)C (some centres not stated) (I: H-CDHLASLWWGTEL-NH2 / II: V[Cit][PABC][NMeV]V[Dil][Dolaproine]-X1; linker I:1-II:N via Hexanoyl(6-succinimido-3yl)),–,–,> 100 nM,> 100 nM,> 100 nM,> 100 nM,–,–,–,–
